Experimental data from US20250145606A1 (Arcus Biosciences, Inc., priority 2023, published 2025).
Where two headings read alike, the source gives them in different places.

Tests used:
c-Kit = c-Kit (Homo sapiens (Human), UniProt P10721); test: Inhibition of c-Kit kinase activity (HTRF KinEASE-TK); assay type: biochemical; details: biochemical
Outline: (§1)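 Human kinases were preincubated 1 h at rt with a 22-point 1:2 compound titration, then run 120 min at rt with biotinylated TK peptide and ATP (2× mix: c-Kit 16 μM, PDGFRα 1 μM, PDGFRβ 40 μM, CSF1R 20 μM). Phosphopeptide was read by HTRF TR-FRET (665/620 nm), and IC50s came from 4-parameter fits.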

beagle dog hepatocytes = test: Bioactivation assessment in dog hepatocytes; assay type: in vitro ADME; details: 5 μM, 4 hours
Description: (§2) Bioactivation Assessment Procedure
(§3) Pooled male Sprague Dawley rat (BioIVT), male beagle dog (BioIVT), male cynomolgus monkey (BioIVT), and a 50-donor pool of cryopreserved human hepatocytes (BioIVT) was thawed in pre-warmed 37° C. InVitroGro™ HT media (BioIVT), centrifuged, and resuspended in the InVitroGro™ HI media (BioIVT). The number of viable cells was determined by the Trypan blue exclusion method. The cells were diluted to a concentration of two million viable cells per milliliter (viability >80%) and seeded into round-bottom 96-well plates. The test articles were dissolved in DMSO and further diluted in 50% CH3CN and InVitroGro™ HI media with final concentrations of 0.05% DMSO and 0.5% CH3CN in the incubation mixture. Incubation was performed at a final concentration of one million cells per milliliter and 5 μM test compounds with continuous shaking at 1100 rpm in a 37° C., 5/95% CO2/air incubator with 100% relative humidity. After 4 hours, the samples were quenched by addition of 3 volumes of CH3CN, vortexed for 15 minutes, and centrifuged at 4200 rpm for 15 minutes at 10° C. (Sorvall Legend XTR centrifuge, Thermo Scientific, Langenselbold, Germany). 80 μL of the resulting supernatant was transferred into a new plate and mixed with 160 μL water followed by liquid chromatography-high resolution mass spectrometry (LC-HRMS) analysis.
(§4) Structural assignments of metabolites were determined through mass spectral analysis. The level of bioactivation was estimated based on the relative peak area of bioactivation products to all identified metabolites. The following equation was used: […]
(§5) Bioactivation products included glutathione conjugates, imine methides, quinones, diols, and other relevant metabolites.

CSF1R = CSF1R (Homo sapiens (Human), UniProt P07333); test: Inhibition of CSF1R kinase activity (HTRF KinEASE-TK); details: biochemical
Outline: as §1

[1] = test system: Sprague Dawley rat hepatocytes; test: Bioactivation assessment in rat hepatocytes; assay type: in vitro ADME; details: 5 μM, 4 hours
Description: as §2, §3, §4, §5

PDGFRα = PDGFRα (Homo sapiens (Human), UniProt P16234); test: Inhibition of PDGFRα kinase activity (HTRF KinEASE-TK); details: biochemical
Outline: as §1

human hepatocytes = test: Bioactivation assessment in human hepatocytes; assay type: in vitro ADME; details: 5 μM, 4 hours
Description: as §2, §3, §4, §5

PDGFRβ = PDGFRβ (Homo sapiens (Human), UniProt P09619); test: Inhibition of PDGFRβ kinase activity (HTRF KinEASE-TK); details: biochemical
Outline: as §1

FLT3 = FLT3 (Homo sapiens (Human), UniProt P36888); test: Inhibition of FLT3 kinase activity (HTRF KinEASE-TK); assay type: biochemical; details: biochemical
Outline: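 FLT3 tyrosine kinase activity was measured with the HTRF KinEASE-TK kit by following phosphorylation of a biotinylated TK peptide. After the 45 min reaction, 10 μL of detection mix was added: 0.2 μM (2×) Streptavidin-XL665 and 2 μM (2×) TK-Antibody-Cryptate in detection buffer. After 60 min, TR-FRET was read on an Envision as the 665 nm/620 nm emission ratio with 320 nm excitation.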

[2] = test system: Phospho-KIT (Y703) in M07e cells; test: Phospho-KIT (Y703) cellular assay in M07e cells; assay type: cell-based; details: M-07e, read-out: M07e Cell IC50
Outline: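 Serum-starved M07e cells preincubated 50 min at 37° C with 11-point half-log compound titration, then stimulated 10 min with SCF at 90.9 ng/mL final. Fixed, permeabilized cells stained for phospho-KIT Y703 and read by flow cytometry (live-gated geometric mean); IC50 by 4-parameter fit normalized to DMSO and positive control.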

PDGFRα, sequence (P16234 24-1089): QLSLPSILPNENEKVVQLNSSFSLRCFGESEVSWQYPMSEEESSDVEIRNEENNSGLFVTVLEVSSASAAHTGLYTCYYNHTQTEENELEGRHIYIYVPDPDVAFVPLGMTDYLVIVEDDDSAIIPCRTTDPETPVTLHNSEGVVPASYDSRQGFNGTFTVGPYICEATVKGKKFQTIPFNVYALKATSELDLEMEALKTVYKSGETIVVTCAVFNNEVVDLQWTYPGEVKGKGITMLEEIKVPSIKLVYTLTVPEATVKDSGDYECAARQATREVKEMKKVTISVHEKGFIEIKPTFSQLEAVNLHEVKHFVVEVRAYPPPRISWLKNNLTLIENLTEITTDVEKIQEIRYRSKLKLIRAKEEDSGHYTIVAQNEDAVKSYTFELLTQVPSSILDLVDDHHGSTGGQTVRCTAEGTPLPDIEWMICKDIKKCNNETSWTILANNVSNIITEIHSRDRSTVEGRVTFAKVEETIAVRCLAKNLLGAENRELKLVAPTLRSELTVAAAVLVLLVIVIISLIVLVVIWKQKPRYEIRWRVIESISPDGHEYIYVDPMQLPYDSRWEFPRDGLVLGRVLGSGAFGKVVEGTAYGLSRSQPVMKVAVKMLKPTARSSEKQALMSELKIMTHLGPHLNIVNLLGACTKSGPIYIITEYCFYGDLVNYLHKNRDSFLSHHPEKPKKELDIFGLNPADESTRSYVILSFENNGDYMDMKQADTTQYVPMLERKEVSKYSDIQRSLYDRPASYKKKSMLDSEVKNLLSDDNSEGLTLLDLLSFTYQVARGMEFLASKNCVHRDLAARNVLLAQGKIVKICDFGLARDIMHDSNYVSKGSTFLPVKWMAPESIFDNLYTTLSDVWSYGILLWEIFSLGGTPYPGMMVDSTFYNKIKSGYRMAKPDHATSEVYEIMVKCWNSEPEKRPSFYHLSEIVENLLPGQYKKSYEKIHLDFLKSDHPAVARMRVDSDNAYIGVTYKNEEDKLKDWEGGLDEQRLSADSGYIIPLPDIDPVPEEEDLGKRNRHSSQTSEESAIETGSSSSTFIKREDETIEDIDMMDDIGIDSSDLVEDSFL
CSF1R, sequence (P07333 20-972): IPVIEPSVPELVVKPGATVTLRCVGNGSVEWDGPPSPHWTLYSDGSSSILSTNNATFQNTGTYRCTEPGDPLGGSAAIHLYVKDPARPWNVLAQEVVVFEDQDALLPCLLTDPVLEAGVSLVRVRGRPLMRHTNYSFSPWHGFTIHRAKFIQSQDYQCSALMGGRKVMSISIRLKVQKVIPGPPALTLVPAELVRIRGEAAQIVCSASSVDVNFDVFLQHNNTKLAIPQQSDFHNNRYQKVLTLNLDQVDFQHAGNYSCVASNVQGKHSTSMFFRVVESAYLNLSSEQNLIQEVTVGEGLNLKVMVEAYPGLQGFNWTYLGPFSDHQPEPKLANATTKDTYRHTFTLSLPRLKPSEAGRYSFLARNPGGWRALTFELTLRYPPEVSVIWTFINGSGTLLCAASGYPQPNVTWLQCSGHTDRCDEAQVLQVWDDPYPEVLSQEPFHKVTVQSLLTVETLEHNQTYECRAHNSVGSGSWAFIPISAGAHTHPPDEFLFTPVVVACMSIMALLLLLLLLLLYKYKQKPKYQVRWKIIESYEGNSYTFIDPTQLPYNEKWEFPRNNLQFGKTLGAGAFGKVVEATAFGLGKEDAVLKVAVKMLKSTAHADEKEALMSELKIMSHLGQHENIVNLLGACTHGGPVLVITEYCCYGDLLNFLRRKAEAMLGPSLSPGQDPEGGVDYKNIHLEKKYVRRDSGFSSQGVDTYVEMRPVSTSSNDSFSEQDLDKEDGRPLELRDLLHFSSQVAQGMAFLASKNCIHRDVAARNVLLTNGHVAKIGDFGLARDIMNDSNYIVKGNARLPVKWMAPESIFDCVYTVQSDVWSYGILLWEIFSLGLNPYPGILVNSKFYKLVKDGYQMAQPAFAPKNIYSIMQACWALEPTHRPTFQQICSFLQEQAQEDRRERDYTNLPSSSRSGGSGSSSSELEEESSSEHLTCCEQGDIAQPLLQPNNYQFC
FLT3, sequence (P36888 27-993): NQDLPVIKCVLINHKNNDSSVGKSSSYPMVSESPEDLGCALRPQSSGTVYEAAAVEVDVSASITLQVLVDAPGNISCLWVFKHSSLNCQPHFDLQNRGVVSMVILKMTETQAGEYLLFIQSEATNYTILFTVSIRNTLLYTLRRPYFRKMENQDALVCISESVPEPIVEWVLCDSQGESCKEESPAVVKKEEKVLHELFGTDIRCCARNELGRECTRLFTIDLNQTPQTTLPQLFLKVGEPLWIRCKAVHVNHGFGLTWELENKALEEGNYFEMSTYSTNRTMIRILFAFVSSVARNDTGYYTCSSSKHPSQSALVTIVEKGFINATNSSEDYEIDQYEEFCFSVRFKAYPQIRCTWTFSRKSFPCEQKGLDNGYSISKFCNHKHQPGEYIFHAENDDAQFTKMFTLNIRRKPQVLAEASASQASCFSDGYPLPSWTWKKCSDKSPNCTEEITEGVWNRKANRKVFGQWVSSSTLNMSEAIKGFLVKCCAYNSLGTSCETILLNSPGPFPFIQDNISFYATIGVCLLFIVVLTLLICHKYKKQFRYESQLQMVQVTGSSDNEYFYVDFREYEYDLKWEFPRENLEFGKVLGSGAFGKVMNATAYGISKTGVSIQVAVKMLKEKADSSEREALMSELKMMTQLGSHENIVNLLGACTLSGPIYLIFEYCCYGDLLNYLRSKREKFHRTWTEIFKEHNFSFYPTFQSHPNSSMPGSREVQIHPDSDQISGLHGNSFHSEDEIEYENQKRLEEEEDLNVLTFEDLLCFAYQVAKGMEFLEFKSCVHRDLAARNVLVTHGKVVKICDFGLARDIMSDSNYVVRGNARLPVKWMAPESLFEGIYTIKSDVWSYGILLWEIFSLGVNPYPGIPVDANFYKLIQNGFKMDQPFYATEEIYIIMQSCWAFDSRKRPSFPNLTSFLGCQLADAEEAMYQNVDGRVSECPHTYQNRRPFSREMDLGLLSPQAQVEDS
PDGFRβ, sequence (P09619 33-1106): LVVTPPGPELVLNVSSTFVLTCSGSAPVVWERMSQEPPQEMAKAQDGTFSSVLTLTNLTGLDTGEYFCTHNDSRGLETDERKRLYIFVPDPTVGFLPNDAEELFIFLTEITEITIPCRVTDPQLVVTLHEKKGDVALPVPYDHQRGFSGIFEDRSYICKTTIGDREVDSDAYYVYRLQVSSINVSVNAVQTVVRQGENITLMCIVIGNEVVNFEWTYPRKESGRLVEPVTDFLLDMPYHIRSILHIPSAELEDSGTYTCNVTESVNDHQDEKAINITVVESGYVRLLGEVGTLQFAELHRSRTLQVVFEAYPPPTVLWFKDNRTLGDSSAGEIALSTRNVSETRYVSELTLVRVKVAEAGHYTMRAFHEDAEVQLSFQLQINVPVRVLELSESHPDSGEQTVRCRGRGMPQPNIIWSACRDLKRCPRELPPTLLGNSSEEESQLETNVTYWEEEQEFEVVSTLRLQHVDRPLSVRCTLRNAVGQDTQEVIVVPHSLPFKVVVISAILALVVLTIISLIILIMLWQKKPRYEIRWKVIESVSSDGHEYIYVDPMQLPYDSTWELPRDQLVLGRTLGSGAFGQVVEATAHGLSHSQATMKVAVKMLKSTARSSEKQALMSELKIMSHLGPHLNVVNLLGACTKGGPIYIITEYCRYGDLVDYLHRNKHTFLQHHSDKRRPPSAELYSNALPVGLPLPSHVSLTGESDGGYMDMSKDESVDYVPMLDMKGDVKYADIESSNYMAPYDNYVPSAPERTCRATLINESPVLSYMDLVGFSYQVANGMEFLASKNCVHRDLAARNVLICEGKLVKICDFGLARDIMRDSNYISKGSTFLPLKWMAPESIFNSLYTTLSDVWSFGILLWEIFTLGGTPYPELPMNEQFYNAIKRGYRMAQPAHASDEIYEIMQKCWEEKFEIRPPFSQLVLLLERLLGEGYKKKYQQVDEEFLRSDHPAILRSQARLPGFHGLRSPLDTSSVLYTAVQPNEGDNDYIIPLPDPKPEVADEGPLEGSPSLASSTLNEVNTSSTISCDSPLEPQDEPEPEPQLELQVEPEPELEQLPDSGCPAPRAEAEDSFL
c-Kit, sequence (P10721 26-976): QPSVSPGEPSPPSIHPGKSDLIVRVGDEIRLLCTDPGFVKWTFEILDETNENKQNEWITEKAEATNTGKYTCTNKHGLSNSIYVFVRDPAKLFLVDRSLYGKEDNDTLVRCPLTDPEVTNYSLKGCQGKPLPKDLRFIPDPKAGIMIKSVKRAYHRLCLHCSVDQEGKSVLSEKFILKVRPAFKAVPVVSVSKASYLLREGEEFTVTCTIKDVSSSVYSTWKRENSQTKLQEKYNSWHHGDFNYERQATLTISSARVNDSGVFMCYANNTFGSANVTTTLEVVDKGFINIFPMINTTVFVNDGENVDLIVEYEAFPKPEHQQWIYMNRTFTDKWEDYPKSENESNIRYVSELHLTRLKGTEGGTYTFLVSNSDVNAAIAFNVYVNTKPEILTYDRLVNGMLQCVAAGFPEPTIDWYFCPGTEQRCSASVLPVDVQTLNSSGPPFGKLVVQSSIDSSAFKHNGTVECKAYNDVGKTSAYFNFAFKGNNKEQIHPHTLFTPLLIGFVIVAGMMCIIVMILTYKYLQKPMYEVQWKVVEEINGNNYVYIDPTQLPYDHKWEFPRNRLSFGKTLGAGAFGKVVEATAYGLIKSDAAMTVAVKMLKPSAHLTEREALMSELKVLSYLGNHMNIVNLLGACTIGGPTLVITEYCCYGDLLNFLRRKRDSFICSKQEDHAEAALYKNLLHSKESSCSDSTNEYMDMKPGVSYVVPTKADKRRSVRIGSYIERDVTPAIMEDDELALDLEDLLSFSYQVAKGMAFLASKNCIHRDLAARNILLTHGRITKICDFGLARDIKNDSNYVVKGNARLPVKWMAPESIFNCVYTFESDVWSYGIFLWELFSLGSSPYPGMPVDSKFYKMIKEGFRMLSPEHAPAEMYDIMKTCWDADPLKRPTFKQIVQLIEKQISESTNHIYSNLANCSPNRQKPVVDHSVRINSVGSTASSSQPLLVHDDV

Compound | IC50 (c-Kit; HTRF KinEASE-TK) [nM] | Percent of total metabolism via bioactivation, Dog hepatocytes (beagle dog hepatocytes) [%] | IC50 (CSF1R; HTRF KinEASE-TK) [nM] | Percent of total metabolism via bioactivation, Rat hepatocytes [1] [%] | IC50 (PDGFRα; HTRF KinEASE-TK) [nM] | Percent of total metabolism via bioactivation, Human hepatocytes (human hepatocytes) [%] | IC50 (PDGFRβ; HTRF KinEASE-TK) [nM] | IC50 (FLT3; HTRF KinEASE-TK) [nM] | IC50 ([2]; Phospho-KIT (Y703), M07e cells) [nM] | IC50 (c-Kit) [nM] | IC50 (FLT3) [nM] | IC50 ([2]; phospho-KIT (Y703), SCF-stimulated M07e cells) [nM] | IC50 (CSF1R) [nM] | IC50 (PDGFRα) [nM] | IC50 (PDGFRβ) [nM]
Cc1ncc(C(=O)Nc2cc(C(=O)Nc3ccc(CC(F)(F)F)cn3)c(F)cc2F)s1 [Example 242, N-[2,4-difluoro-5-[[5-(2,2,2-trifluoroethyl)pyridin-2-yl]carbamoyl]phenyl]-2-methyl-1,3-thiazole-5-carboxamide] | 100 to 1000 | 44 | > 1000 | 88 | > 1000 | <1 | > 1000 | – | – | – | – | – | – | – | –
Cc1cc(F)c(C(=O)Nc2ccn(-c3ccccc3)n2)cc1NC(=O)c1cnc(N)s1 [Example 172, 2-Amino-N-[4-fluoro-2-methyl-5-[(1-phenylpyrazol-3-yl)carbamoyl]phenyl]-1,3-thiazole-5-carboxamide] | < 100 | – | > 1000 | – | > 1000 | – | > 1000 | > 1000 | < 100 | – | – | – | – | – | –
Cc1cc(F)c(C(=O)Nc2ccc(OC(F)(F)F)cn2)cc1NC(=O)c1cnc(N)s1 [Example 8, 2-Amino-N-[4-fluoro-2-methyl-5-[[5-(trifluoromethoxy)pyridin-2-yl]carbamoyl]phenyl]-1,3-thiazole-5-carboxamide] | – | – | – | – | – | – | – | – | – | < 100 | > 1000 | < 100 | 100 to 1000 | 100 to 1000 | 100 to 1000
CO[C@H]1C[C@H](n2ccc(NC(=O)c3cc(NC(=O)c4cnc(N)s4)c(C)cc3F)n2)C1 [Example 187, 2-Amino-N-[4-fluoro-5-[[1-(trans-3-methoxycyclobutyl)pyrazol-3-yl]carbamoyl]-2-methylphenyl]-1,3-thiazole-5-carboxamide] | < 100 | – | > 1000 | – | > 1000 | – | > 1000 | > 1000 | < 100 | – | – | – | – | – | –
Nc1ncc(C(=O)Nc2cc(C(=O)Nc3ccc(OC(F)F)cn3)c(F)cc2Cl)s1 [Example 208, 2-Amino-N-[2-chloro-5-[[5-(difluoromethoxy)pyridin-2-yl]carbamoyl]-4-fluorophenyl]-1,3-thiazole-5-carboxamide] | < 100 | – | 100 to 1000 | – | > 1000 | – | 100 to 1000 | > 1000 | < 100 | – | – | – | – | – | –
Cc1ccc(NC(=O)c2cc(NC(=O)c3cnc(N)s3)c(C)cc2F)nc1 [Example 133, 2-Amino-N-[4-fluoro-2-methyl-5-[(5-methylpyridin-2-yl)carbamoyl]phenyl]-1,3-thiazole-5-carboxamide] | < 100 | – | > 1000 | – | > 1000 | – | > 1000 | > 1000 | < 100 | – | – | – | – | – | –
Cc1cc(F)c(C(=O)Nc2ccc(OCC3CC3)cn2)cc1NC(=O)c1cnc(N)s1 [Example 143, 2-Amino-N-[5-[[5-(cyclopropylmethoxy)pyridin-2-yl]carbamoyl]-4-fluoro-2-methylphenyl]-1,3-thiazole-5-carboxamide] | < 100 | – | > 1000 | – | > 1000 | – | 100 to 1000 | > 1000 | < 100 | – | – | – | – | – | –
Cc1cc(F)c(C(=O)NCC(F)(F)F)cc1NC(=O)c1cnc(N)s1 [Example 122, 2-Amino-N-[4-fluoro-2-methyl-5-(2,2,2-trifluoroethylcarbamoyl)phenyl]-1,3-thiazole-5-carboxamide] | < 100 | – | > 1000 | – | > 1000 | – | > 1000 | > 1000 | < 100 | – | – | – | – | – | –
Cc1cc(F)c(C(=O)Nc2ccc(C3(C#N)CC3)cn2)cc1NC(=O)c1cnc(N)s1 [Example 118, 2-Amino-N-[5-[[5-(1-cyanocyclopropyl)pyridin-2-yl]carbamoyl]-4-fluoro-2-methylphenyl]-1,3-thiazole-5-carboxamide] | < 100 | – | 100 to 1000 | – | > 1000 | – | 100 to 1000 | > 1000 | < 100 | – | – | – | – | – | –
